From ChEMBL document CHEMBL1201862, “PubChem BioAssay data set” (2004)
The source made the active and inactive calls.

Assays:
[1] = target: T1, DNA repair protein RAD52 homolog (Homo sapiens, UniProt P43351); format: functional, biochemical
T1 sequence (P43351 whole entry): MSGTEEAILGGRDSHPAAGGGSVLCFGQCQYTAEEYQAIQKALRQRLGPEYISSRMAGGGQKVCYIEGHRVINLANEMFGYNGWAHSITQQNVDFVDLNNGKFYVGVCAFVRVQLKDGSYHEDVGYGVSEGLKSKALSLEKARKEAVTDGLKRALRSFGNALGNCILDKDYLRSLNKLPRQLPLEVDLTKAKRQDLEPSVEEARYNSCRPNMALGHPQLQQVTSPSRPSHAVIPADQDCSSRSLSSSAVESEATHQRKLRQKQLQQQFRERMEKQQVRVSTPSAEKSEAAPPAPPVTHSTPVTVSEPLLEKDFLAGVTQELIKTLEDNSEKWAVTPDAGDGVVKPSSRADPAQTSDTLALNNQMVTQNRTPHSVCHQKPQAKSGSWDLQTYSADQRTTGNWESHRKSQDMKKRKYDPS

[2] = target: Glutathione-S-transferase (Schistosoma japonicum, UniProt Q26513); test: GST-antibody interaction or FRET quenching – biochemical, TR-FRET, artefact control for Vif-APOBEC3G degradation inhibitor project, dose response (AID 1117362); format: functional
[3] = target: T2, Protein Tat (Human immunodeficiency virus type 1 group M subtype B (isolate HXB2)(HIV-1), UniProt P04608); format: functional;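 further: tat binding to TAR RNA read out by fluorescence polarization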
T2 sequence (P04608 whole entry): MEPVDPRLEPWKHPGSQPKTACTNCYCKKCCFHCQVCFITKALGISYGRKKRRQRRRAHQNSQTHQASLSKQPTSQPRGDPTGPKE

[4] = HIV-1 Vif–A3G interaction blockers – biochemical, TR-FRET, GST-Vif 1-94, biotin-A3G peptide, dose response retest, primary screen (AID 1117319); format: functional;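 further: TR-FRET signal of purified GST-Vif binding a biotinylated A3G peptide; inhibitors lower the FRET signal by blocking Vif and A3G binding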
[5] = system: Escherichia coli; test: microbe, parasite or virus in culture
[6] = target: T3, Histone-lysine N-methyltransferase NSD2 (Homo sapiens, UniProt O96028); format: biochemical
T3 sequence (O96028 whole entry): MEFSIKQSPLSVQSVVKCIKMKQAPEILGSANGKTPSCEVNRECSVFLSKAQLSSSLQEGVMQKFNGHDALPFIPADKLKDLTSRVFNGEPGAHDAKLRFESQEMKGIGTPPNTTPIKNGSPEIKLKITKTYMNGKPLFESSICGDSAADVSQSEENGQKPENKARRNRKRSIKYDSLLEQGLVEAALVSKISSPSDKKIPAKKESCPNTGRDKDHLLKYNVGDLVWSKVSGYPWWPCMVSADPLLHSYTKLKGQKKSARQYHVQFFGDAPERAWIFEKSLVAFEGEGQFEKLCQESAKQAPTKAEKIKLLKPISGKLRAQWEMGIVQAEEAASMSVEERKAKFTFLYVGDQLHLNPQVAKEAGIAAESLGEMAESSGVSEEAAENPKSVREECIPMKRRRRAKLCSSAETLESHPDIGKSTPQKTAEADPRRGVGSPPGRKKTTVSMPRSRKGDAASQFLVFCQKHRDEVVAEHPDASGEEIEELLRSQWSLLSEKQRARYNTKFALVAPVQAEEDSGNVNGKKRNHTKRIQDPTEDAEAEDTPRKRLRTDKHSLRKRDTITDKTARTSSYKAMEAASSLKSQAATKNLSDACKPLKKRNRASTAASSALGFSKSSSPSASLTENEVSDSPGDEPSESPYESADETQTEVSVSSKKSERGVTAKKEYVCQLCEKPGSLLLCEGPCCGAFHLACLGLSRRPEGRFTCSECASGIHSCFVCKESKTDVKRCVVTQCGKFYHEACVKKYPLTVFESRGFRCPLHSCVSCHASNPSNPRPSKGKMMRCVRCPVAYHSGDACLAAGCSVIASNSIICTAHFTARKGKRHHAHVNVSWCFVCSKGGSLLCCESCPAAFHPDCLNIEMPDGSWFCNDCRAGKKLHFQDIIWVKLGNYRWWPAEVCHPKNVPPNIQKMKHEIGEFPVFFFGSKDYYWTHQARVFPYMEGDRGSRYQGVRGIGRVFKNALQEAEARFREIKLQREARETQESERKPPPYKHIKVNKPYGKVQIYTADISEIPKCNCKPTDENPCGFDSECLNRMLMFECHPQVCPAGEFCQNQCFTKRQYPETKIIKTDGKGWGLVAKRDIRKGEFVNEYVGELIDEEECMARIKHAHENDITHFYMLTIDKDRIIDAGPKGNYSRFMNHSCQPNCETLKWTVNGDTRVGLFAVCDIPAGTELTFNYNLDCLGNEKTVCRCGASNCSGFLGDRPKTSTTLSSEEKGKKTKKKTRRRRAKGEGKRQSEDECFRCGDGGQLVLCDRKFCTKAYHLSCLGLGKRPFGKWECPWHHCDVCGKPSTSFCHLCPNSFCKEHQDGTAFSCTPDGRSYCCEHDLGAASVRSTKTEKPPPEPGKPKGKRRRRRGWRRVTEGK

[7] = target: T4, Rac GTPase-activating protein 1 (Homo sapiens, UniProt Q9H0H5); test: blockers of MgcRacGAP-driven Rac1 GTP hydrolysis – biochemical, ADP Hunter fluorescence, primary and confirmatory, confirmation (AID 624330); format: functional
T4 sequence (Q9H0H5 whole entry): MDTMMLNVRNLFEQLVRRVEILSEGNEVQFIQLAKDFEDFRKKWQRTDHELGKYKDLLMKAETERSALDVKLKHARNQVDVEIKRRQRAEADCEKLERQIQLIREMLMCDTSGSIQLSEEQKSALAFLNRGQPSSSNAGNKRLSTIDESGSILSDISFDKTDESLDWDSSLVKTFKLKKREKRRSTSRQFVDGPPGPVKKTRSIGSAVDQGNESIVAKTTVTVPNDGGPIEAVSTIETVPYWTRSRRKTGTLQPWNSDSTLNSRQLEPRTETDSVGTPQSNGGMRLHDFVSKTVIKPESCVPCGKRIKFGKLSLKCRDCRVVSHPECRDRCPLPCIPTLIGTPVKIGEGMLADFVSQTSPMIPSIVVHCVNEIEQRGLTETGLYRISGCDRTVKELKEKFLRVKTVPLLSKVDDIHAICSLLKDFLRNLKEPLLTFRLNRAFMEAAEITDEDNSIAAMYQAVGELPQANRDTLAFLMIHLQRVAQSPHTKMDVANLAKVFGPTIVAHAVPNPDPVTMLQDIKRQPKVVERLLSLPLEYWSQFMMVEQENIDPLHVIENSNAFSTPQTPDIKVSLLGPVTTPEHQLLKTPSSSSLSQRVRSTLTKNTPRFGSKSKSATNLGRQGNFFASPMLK

[8] = target: T5, Fibrinogen beta chain (Homo sapiens, UniProt P02675); test: Fluorescence polarization-based biochemical high throughput dose response assay to identify inhibitors that disrupt the binding of a cyclic peptide (Tn7) to the fibrin proteolytic product D-Dimer and fragment E complex [DD(E )].
[9] = viability loss in HeLa cells – cytotoxicity control for MgcRacGAP inhibitor project, dose response (AID 624300); format: functional
[10] = target: Matrix metalloproteinase-14 (Homo sapiens, UniProt P50281); test: Dose Response confirmation of uHTS hits for a small molecule inhibitors of MT1-MMP activation in a fluorescence assay set 1.; format: functional
[11] = target: T5, Fibrinogen beta chain; test: Fluorescence polarization-based biochemical high throughput dose response assay to identify inhibitors that disrupt the binding of a cyclic peptide (Tn6) to the fibrin proteolytic product D-Dimer and fragment E complex [DD(E )].
[12] = target: Nonstructural protein 1 (Influenza A virus, UniProt Q194T2); format: functional, Influenza A virus (A/California/07/2009(H1N1))
[13] = IGROV1 cell killing – plate reader, dry powder samples, PAX8 inhibitor project, dose response (AID 743043); format: functional, cell-based; settings: IGROV-1
[14] = target: Paired box protein Pax-8 (Homo sapiens, UniProt Q06710); test: PAX8 transcriptional activity inhibition in RMG-I – RMG-I cells, luciferase, cherry-pick, dose response (AID 687027); format: functional, cell-based;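 further: luciferase reporter driven by Pax8 target thyroperoxidase promoter measured by SteadyGlo luminescence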
[15] = Dd2 parasite growth inhibition in erythrocytes – SYBR Green, dry powder samples, set 9, dose response (AID 1159568); format: functional, cell-based
[16] = OVCAR-3 cell viability loss – plate reader, dry powder samples, PAX8 inhibitor project, dose response (AID 743044); format: functional, cell-based

T5 sequence (P02675 whole entry, the tested form may be a part): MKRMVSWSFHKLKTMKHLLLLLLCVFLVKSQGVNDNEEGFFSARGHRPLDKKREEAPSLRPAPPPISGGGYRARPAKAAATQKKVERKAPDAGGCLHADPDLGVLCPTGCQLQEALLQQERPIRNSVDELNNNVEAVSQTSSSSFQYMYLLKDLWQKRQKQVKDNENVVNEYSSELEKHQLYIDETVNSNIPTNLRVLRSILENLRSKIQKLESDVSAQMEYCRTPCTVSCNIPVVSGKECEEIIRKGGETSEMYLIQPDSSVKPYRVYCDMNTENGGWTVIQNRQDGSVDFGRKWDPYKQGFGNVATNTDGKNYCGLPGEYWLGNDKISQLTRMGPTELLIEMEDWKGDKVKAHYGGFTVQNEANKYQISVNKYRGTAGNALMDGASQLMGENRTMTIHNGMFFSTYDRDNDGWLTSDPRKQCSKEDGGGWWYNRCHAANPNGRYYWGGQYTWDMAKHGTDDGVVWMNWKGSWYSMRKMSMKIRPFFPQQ
Sequence of Glutathione-S-transferase (Q26513 whole entry): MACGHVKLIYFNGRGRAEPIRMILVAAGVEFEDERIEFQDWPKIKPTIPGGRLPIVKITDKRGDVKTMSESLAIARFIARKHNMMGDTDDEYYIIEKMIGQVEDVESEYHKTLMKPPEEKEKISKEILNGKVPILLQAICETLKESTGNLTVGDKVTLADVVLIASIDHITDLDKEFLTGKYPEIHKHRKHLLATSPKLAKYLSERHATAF
Sequence of Paired box protein Pax-8 (Q06710 whole entry): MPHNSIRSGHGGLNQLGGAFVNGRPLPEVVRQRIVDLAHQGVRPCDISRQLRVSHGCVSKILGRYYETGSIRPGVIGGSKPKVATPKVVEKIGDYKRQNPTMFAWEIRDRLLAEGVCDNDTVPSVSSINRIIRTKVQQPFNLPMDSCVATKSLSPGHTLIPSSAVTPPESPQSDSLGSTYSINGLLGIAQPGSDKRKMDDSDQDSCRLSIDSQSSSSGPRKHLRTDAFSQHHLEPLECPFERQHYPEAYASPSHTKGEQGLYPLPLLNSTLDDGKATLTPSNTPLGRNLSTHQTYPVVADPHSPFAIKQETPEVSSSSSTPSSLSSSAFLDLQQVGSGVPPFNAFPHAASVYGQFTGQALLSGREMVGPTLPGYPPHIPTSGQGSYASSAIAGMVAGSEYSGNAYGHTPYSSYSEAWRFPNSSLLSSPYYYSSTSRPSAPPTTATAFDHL
Sequence of Nonstructural protein 1 (Q194T2 whole entry): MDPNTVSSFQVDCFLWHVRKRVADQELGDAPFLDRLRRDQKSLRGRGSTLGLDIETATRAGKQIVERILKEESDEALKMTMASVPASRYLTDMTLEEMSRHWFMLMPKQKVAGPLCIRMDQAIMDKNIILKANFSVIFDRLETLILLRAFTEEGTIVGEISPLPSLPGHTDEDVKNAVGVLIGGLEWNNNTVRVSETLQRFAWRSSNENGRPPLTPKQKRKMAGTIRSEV

## Nc1ccc(N2CCN(CCCCN3C(=O)C4CCCN4C3=O)CC2)cc1 (configuration not stated)
[1]
  AC50: 1.29 µM (active)
[2]
  IC50: 3.15 µM (active)
[3]
  IC50: > 100 µM (active)

## COc1ccc(S(=O)(=O)NCCSCc2ccco2)cc1Cl
[4]
  IC50: > 100 µM (active)
[5]
  AC50: 43.2 µM (active)

## O=C1c2cccc(NCCCNCCO)c2C(=O)c2cccc(NCCCNCCO)c21
[6]
  AC50: 3.53 µM (active)
[1]
  AC50: < 0.15 µM (active)
[7]
  IC50: 27.8 µM (active)
[8]
  IC50: > 83.3 µM (inactive)
[9]
  CC50: 25.6 µM (active)
[10]
  IC50: 38 µM (inactive)
[11]
  IC50: 9.1 µM (active)
[12]
  IC50: 10.1 µM (active)

## O=C(Nc1ccccc1F)N1CCCCN2[C@@H](CO)[C@@H](c3ccc(/C=C/c4ccccc4)cc3)[C@@H]2C1
[13]
  AC50: 29.1 µM (active)
[14]
  AC50: 7.96 µM (active)
[15]
  AC50: 2.52 µM (active)
[16]
  AC50: 10.6 µM (active)
